Test results: patent US20090186915A1, “Compositions and methods for treatment of glioblastoma, gliosarcoma, NSCLC, and head and neck cancer” (Unibioscreen S. A., priority 2006, published 2009)
Read-outs that look alike come from different tables or passages of the source.

Experiments:
DU-145 = assay: Cell cycle kinetics by flow cytometry (PI), DU-145; assay type: cell-based, human; conditions: 1 μM
Experimental: (§1) The cell cycle kinetics of prostate cancer cells left untreated or incubated with UNBS5162 were determined by flow cytometry analysis of propidium iodide (PI) nuclear staining, using previously detailed methodology. Each sample was evaluated in triplicate. Flow cytometry was undertaken using an Epics XL.MCL flow cytometer and the FACScan/CellQuest software system (Becton Dickinson, Miami, Fla.).

U-373MG = assay: MTT overall cell growth, U-373MG cells; assay type: cell-based; conditions: Homo sapiens
Experimental: Tests were performed in order to rapidly, i.e. within 5 days, measure the effect of the compound of example 2 on the overall cell growth. The test measures the number of metabolically active living cells that are able to transform the yellow product 3-(4,5-dimethylthiazol-2-yl)-2,5-diphenyl tetrazolium bromide (herein referred as MTT) into the blue product formazan dye by mitochondrial reduction. The amount of formazan obtained at the end of the experiment, measured by means of a spectrophotometer, is directly proportional to the number of living cells. Optical density determination thus enables a quantitative measurement of the effect of the investigated compounds as compared to the control condition (untreated cells) and/or to other reference compounds.
Six human cancer cell lines described in table 1 were used in the following MTT tests. These cell lines cover six histological cancer types, being prostate, glioma, pancreas, colon, lung and breast cancers. Cells were allowed to grow in 96 well micro-wells with a flat bottom with an amount of 100 μl of cell suspension per well with 1,000 to 4,000 cells/well depending on the cell type used. Each cell line was seeded in a well known MEM 10% serum culture medium. […]
After 72 hours of incubation at 37° C. with (experimental conditions) or without (control condition) the compound to be tested, the medium was replaced by 100 μl MTT dissolved in RPMI (1640 without phenol red) at a concentration of 1 mg/ml. […] The micro-wells were shaken for 5 minutes and read on a spectrophotometer at wavelengths of 570 nm (maximum formazan absorbance) and 630 nm (back-ground noise).
For each experimental condition, the mean optical density was calculated, as well as the percentage of remaining living cells in comparison with the control.
(§2) The overall growth of human cancer cell lines was determined by means of the calorimetric MTT (3-[4,5-dimethylthiazol-2-yl]-diphenyl tetrazolium bromide; Sigma) assay, as detailed previously.

[1] = test system: human A549 NSCLC orthotopic
Experimental: The purpose of the present study was to evaluate the in vivo efficacy of UNBS5162 on human A549 NSCLC orthotopic nude mice model. The endpoint in this experiment was the survival period of the tumor-bearing mice following treatment, as indicated.
The experiment comprised 6 groups of II mice, one group with mice receiving the vehicle only (Ct group) and 5 groups receiving the treatments as indicated in the Table 13. UNBS5162 was dosed i.v. at 10 mg/kg (in lactic acid vehicle). Taxol (Paclitaxel 6 mg/mL, Bristol-Myers Squibb) was dosed i.v. at 20 mg/kg.

BFU-E = assay: HALO hematotoxicity assay, human BFU-E; assay type: cell-based; conditions: 7 days culture, iATP
Experimental: (§3) Investigation of the hematotoxic potential of UNBS5162 was undertaken by HemoGenix (Colorado Springs, Colo.). The effects of UNBS5162 on stem and progenitor cell populations from murine and human bone marrow were assessed using HALO (Hematopoietic/Hematotoxicity Assay through Luminescence Output) technology. Stem and hematopoietic progenitor cell populations were isolated from mouse and human bone marrow samples, plated at a concentration of 1.0×10^4 cells/well and cultured for 5 and 7 days, respectively, in the presence of growth factors and increasing concentrations of UNBS5162 ranging from 0.5 nM to 50 μM. The proliferative or growth potential of cell populations was determined from intracellular ATP (iATP) concentrations and a luciferin/luciferase bioluminescence signal detection system. All samples were assayed in eight replicates. The results are presented as estimated inhibitory concentration (IC) values.

PC-3 [2] = assay: Cell cycle kinetics by flow cytometry (PI), PC-3; assay type: cell-based, human
Experimental: as §1

CCL2, CXCL-I and CXCL-8 = assay: ELISA of CCL2, CXCL1 and CXCL8, Hs683 cells; assay type: cell-based, human; conditions: 1 μM single or 5×1
MXT-HI mammary tumor = assay: Syngeneic MXT-HI mammary tumor s.c., with or without irradiation; conditions: for Mean tumor size: UNBS5162 i.v. (5i × 3w) 10 mg/kg, alone or with 10 gray; for Number of mice dead or sacrificed: 11 mice per group
Experimental: The MXT-HI models used in our laboratory involve subcutaneously injecting MXT-HI tumor fragments into the flanks of B6D2F1 mice.
After the adaptation period, animals were inoculated subcutaneously with MXT-HI tumor. Briefly, “bank animals” were sacrificed and MXT-HI tumors were isolated from the animals, kept in saline solution and minced into 1 mm^3 pieces. These pieces (one/animal) were randomly s.c. inoculated into the right flanks of mice by means of a trocar.
UNBS5162 was dosed intravenously in accordance with UNBS procedure #002. The dosing volume was fixed at 200 μL/mouse. Group 1: Control (lactic acid vehicle) (5i/week×3 weeks) Group 2: UNBS5162 (10 mg/kg, 5i/week×3 weeks) Group 3: Irradiated (10 gray, 1 irradiation) Group 4: Irradiated (10 gray, 1 irradiation)+UNBS5162 (10 mg/kg, 5i/week×3 weeks) For group 4, the first administration of UNBS5162 was performed at the morning of the day of irradiation (5 Dec. 2007).
Briefly, animals were anaesthetized, using a syringe, with 150 μl of Rompun/Ketalar mixture (1 part Rompun/1 part Ketalar/4.5 parts saline) injected intraperitoneally. After approximately 5 minutes and after verification that animals were completely asleep, an irradiation simulation was performed first to focalise irradiation in the tumor centre and to avoid to irradiate healthy tissue. Simulation was performed individually on each animal to adapt irradiation to tumor size. In a second time, the tumor was irradiated with a dose of 10 gray (5 MV photons from a linear accelerator at a source skin distance of 1 m).
For technical reasons, irradiation was not performed the same day for all animals. Tumor irradiation was performed on day 14 post-graft for group 4 (irradiated+UNBS5162) and on day 16 post-graft for group 3 (irradiated alone).
Tumor growths were recorded 3 times weekly on Monday, Wednesday and Friday.
Statistical comparisons between the control group and the treated groups were performed with the non-parametric Mann-Whitney U-test. Survival analysis was done either by calculating the % T/C-value or with Kaplan-Meier analysis and Log-rank statistics. All statistical analyses were carried out using Statistica software (Statsoft, Tulsa, Okla.). The cut-off level for statistical significance was set at a p-value of p<0.05.
The T/C-values were calculated by dividing the day of death or sacrifice of the median mouse in a treated group T by the day of death or sacrifice of the median mouse in the control group C, the latter said to be 100%.

PC-3 [3] = assay: Lysosomal membrane permeabilization (LMP), PC-3; assay type: cell-based, human; conditions: 72 hours, 1 μM or 10 μM
Source text: It is well known that lysosomes control cell death at several levels. In response to endogenous or exogenous stress (including chemotherapy), lysosomal membrane permeabilization (LMP) can occur, leading to the release of catabolic hydrolases that can mediate caspase-dependent apoptosis, caspase-independent apoptosis-like cell death or even necrosis following high levels of LMP.

GM-CFC = assay: HALO hematotoxicity assay, mouse GM-CFC; assay type: cell-based; conditions: 5 days culture, iATP
Experimental: as §3

MCF-7 = assay: MTT colorimetric assay, MCF-7 cells; assay type: cell-based; conditions: Homo sapiens, MCF7, 72 h, 3 days of culturing, mean of six determinations, read-out: IC50 (μM) In Vitro Growth Inhibition
Experimental: as §2

[4] = UNBS5162 10 mg/kg i.v. 5i×3w, alone or with 1×10 gray

In the case of `CN(C)CCN1C(=O)c2cccc3cc(NC(N)=O)cc(c23)C1=O` [UNBS5162, N-{2-[2-(dimethylamino)ethyl]-1,3-dioxo-2,3-dihydro-1H-benzo[de]isoquinolin-5-yl}urea], the cell cycle kinetics (DU-145) is reported as “did not significantly (P>0.05) modify”, the IC50 (U-373MG; 72 h, U373-MG, 3 days of culturing, mean of six determinations, read-out: IC50 (μM) In Vitro Growth Inhibition) is reported as 4.7 µM and the IC50 (U-373MG; U373 MG, U-373MG, 72 hours incubation, range of molar concentrations, read-out: IC50) is reported as 5 to 10 µM. The “survival of A549 NSCLC xenograft-bearing mice” value ([1]; UNBS5162 10 mg/kg i.v. in combination with Taxol 20 mg/kg i.v.) was “significantly increased the survival”, the “T/C (%)” value ([1]; UNBS5162 i.v. 10 mg/kg (3i × 6w)) was 102% and the IC50 (BFU-E; 168 h) was 3.6 µM. For the same molecule, the IC90 (BFU-E; 168 h) was 17.6 µM, the IC75 (BFU-E) was 8.16 µM and the cell cycle kinetics (PC-3 [2]; 1 μM) was “did not significantly (P>0.05) modify”. The “cell cycle kinetics, G2 block” value (PC-3 [2]; 10 μM for 72 hours) was “markedly blocked PC-3 cells in their G2 cell cycle phase”, the cell cycle kinetics (PC-3 [2]; chronic 1 μM for 5 days (5×1) or 3 weeks (3w1)) was “did not notably modify PC-3 cell cycle kinetics” and the “CCL2, CXCL-I and CXCL-8 production (ELISA)” value (CCL2, CXCL-I and CXCL-8) was “a marked UNBS5162-mediated decrease in CCL2, CXCL-I and CXCL-8 production”. It also gave a Mean tumor size (MXT-HI mammary tumor; Day 14) of 178.52 mm^2, a Mean tumor size (MXT-HI mammary tumor; Day 16) of 250.08 mm^2 and a Mean tumor size (MXT-HI mammary tumor; Day 19) of 414.11 mm^2. The Mean tumor size (MXT-HI mammary tumor; Day 21) was 423.71 mm^2, the Mean tumor size (MXT-HI mammary tumor; Day 23) was 481.56 mm^2 and the Mean tumor size (MXT-HI mammary tumor; Day 26) was 619.21 mm^2. For the same molecule, the “effect on tumor area” value (MXT-HI mammary tumor; [4]) was “no relevant effects”, the “survival of MXT-HI-bearing mice” value (MXT-HI mammary tumor; [4]) was “No prolongation of survival” and the “Number of mice dead or sacrificed” value (MXT-HI mammary tumor; day 19 post graft) was 1. For the same molecule, the “Number of mice dead or sacrificed” value (MXT-HI mammary tumor; day 21 post graft) was 2, the “Number of mice dead or sacrificed” value (MXT-HI mammary tumor; day 23 post graft) was 3 and the “Number of mice dead or sacrificed” value (MXT-HI mammary tumor; day 26 post graft) was 4. For the same molecule, the “Number of mice dead or sacrificed” value (MXT-HI mammary tumor; day 28 post graft) was 1, the “lysosomal membrane permeabilization (LMP)” value (PC-3 [3]) was “no LMP” and the IC50 (GM-CFC; 120 h) was 7.04 µM. It also gave an IC90 (GM-CFC; 120 h) of 12 µM, an IC75 (GM-CFC) of 9.09 µM and an IC50 (MCF-7) of 46.5 µM.
